Results reported in the NIST ThermoML archive (doi:10.1016/j.jct.2013.12.009).

Legend:
[1] = for speed of sound / kinematic viscosity / mass density: Liquid; for speed of sound: Sing-around technique in a fixed-path interferometer; for surface tension liquid-gas: Pendant drop shape; for kinematic viscosity: Capillary tube (Ostwald / Ubbelohde) method; for mass density: Vibrating tube method
[2] = xn = mol fraction of the nth substance listed; conditions: for surface tension liquid-gas: Pendant drop shape; for viscosity / mass density: 101 kPa, Liquid; for viscosity: Concentric cylinders viscometry; for mass density: Vibrating tube method

CCCC[N+]1(C)CCCC1.O=S(=O)([N-]S(=O)(=O)C(F)(F)F)C(F)(F)F
[1], 101.33 kPa
Conditions | kinematic viscosity [m2/s] | mass density [kg/m3] | speed of sound [m/s]
288.02 K | – | – | 1293.9
288.15 K | 8.9e-05 | 1403.37 | –
293.01 K | – | – | 1281.8
293.15 K | 6.96e-05 | 1398.92 | –
298.01 K | – | – | 1270
298.15 K | 5.57e-05 | 1394.49 | –
303.15 K | 4.52e-05 | 1390.09 | –
303.2 K | – | – | 1258
308.14 K | – | – | 1246.8
308.15 K | 3.69e-05 | 1385.66 | –
313.15 K | 3.06e-05 | 1381.29 | 1235.7
318.12 K | – | – | 1224.7
318.15 K | 2.55e-05 | 1376.92 | –
323.13 K | – | – | 1213.8
323.15 K | 2.15e-05 | 1372.54 | –

[1]
Conditions | surface tension liquid-gas [mN/m]
288.15 K | 33.71
293.15 K | 33.44
298.15 K | 33.22
303.15 K | 33.02
308.15 K | 32.82
313.15 K | 32.6
318.15 K | 32.35
323.15 K | 32.15

CCC[N+]1(C)CCCC1.O=S(=O)([N-]S(=O)(=O)C(F)(F)F)C(F)(F)F
[1], 101.33 kPa
Conditions | kinematic viscosity [m2/s] | mass density [kg/m3] | speed of sound [m/s]
288.01 K | – | – | 1294.4
288.15 K | 6.82e-05 | 1436.86 | –
293.01 K | – | – | 1282.8
293.15 K | 5.33e-05 | 1432.36 | –
297.99 K | – | – | 1271.3
298.15 K | 4.26e-05 | 1427.83 | –
303.15 K | 3.48e-05 | 1423.32 | –
303.24 K | – | – | 1259.5
308.15 K | 2.88e-05 | 1418.81 | –
308.21 K | – | – | 1248.6
313.15 K | 2.42e-05 | 1414.3 | –
313.2 K | – | – | 1237.6
318.15 K | 2.06e-05 | 1409.86 | –
318.16 K | – | – | 1226.9
323.15 K | 1.76e-05 | 1405.41 | –
323.21 K | – | – | 1216.2

[1]
Conditions | surface tension liquid-gas [mN/m]
288.15 K | 35.04
293.15 K | 34.87
298.15 K | 34.61
303.15 K | 34.37
308.15 K | 34.14
313.15 K | 33.94
318.15 K | 33.72
323.15 K | 33.48

CCCC[N+]1(C)CCCC1.O=S(=O)([N-]S(=O)(=O)C(F)(F)F)C(F)(F)F + CC#N
[2]
Conditions | mass density, 288.15 K [kg/m3] | mass density, 298.15 K [kg/m3] | mass density, 308.15 K [kg/m3] | surface tension liquid-gas, 288.15 K [mN/m] | surface tension liquid-gas, 298.15 K [mN/m] | surface tension liquid-gas, 308.15 K [mN/m] | viscosity, 288.15 K [mPa·s] | viscosity, 298.15 K [mPa·s] | viscosity, 308.15 K [mPa·s]
x1 = 0.053 | 941.8 | 931.2 | 920.5 | 30.92 | 29.78 | 28.55 | – | – | –
x1 = 0.1924 | – | – | – | – | – | – | 2.41 | 2.02 | 1.73
x1 = 0.1989 | 1156.4 | 1146.2 | 1136.2 | 32.45 | 31.45 | 30.57 | – | – | –
x1 = 0.3593 | 1263.1 | 1253.5 | 1243.9 | 33.18 | 32.48 | 31.76 | – | – | –
x1 = 0.4602 | – | – | – | – | – | – | 13.16 | 9.79 | 7.56
x1 = 0.5201 | 1322.1 | 1312.7 | 1303.4 | 33.45 | 32.84 | 32.2 | – | – | –
x1 = 0.598 | – | – | – | – | – | – | 26.33 | 18.47 | 13.58
x1 = 0.6103 | 1344.7 | 1335.5 | 1326.4 | 33.51 | 32.97 | 32.44 | – | – | –
x1 = 0.788 | 1377.3 | 1368.3 | 1359.2 | 33.58 | 33.13 | 32.68 | – | – | –
x1 = 0.8159 | – | – | – | – | – | – | 65.88 | 42.55 | 29.18
x1 = 0.9394 | 1396.6 | 1387.8 | 1379 | 33.71 | 33.2 | 32.72 | – | – | –
x1 = 1 | 1403.4 | 1394.5 | 1385.7 | 33.71 | 33.22 | 32.82 | – | – | –

CCCC[N+]1(C)CCCC1.O=S(=O)([N-]S(=O)(=O)C(F)(F)F)C(F)(F)F + CO
[2]
Conditions | mass density, 288.15 K [kg/m3] | mass density, 298.15 K [kg/m3] | mass density, 308.15 K [kg/m3] | surface tension liquid-gas, 288.15 K [mN/m] | surface tension liquid-gas, 298.15 K [mN/m] | surface tension liquid-gas, 308.15 K [mN/m] | viscosity, 288.15 K [mPa·s] | viscosity, 298.15 K [mPa·s] | viscosity, 308.15 K [mPa·s]
x1 = 0.0495 | 970.4 | 960.7 | 951.1 | 24.36 | 23.54 | 22.73 | – | – | –
x1 = 0.1886 | 1186.4 | 1176.8 | 1167.3 | 26.9 | 26.36 | 25.86 | – | – | –
x1 = 0.2054 | – | – | – | – | – | – | 5.04 | 3.91 | 3.11
x1 = 0.3407 | 1281.7 | 1272.3 | 1263 | 29.25 | 28.95 | 28.63 | – | – | –
x1 = 0.4365 | – | – | – | – | – | – | 17.5 | 12.51 | 9.35
x1 = 0.4932 | 1332.2 | 1323 | 1313.8 | 31.03 | 30.85 | 30.54 | – | – | –
x1 = 0.5394 | – | – | – | – | – | – | 26.71 | 18.54 | 13.51
x1 = 0.6076 | 1356.2 | 1347 | 1338 | 32.08 | 31.67 | 31.36 | – | – | –
x1 = 0.637 | 1361.2 | 1352.1 | 1343 | 32.25 | 31.94 | 31.65 | – | – | –
x1 = 0.7067 | – | – | – | – | – | – | 49.43 | 32.82 | 23.02
x1 = 0.801 | 1384 | 1375 | 1366.1 | 33.23 | 32.77 | 32.33 | – | – | –
x1 = 0.8363 | 1388.1 | 1379.1 | 1370.3 | – | – | – | – | – | –
x1 = 0.9135 | 1395.6 | 1386.7 | 1377.9 | 33.57 | 33.1 | 32.65 | – | – | –
x1 = 1 | 1403.4 | 1394.5 | 1385.7 | 33.71 | 33.22 | 32.82 | – | – | –

CC#N [acetonitrile]
[1]
Conditions | surface tension liquid-gas [mN/m]
288.15 K | 29.53
298.15 K | 28.34
308.15 K | 27.15

[1], 101 kPa
Conditions | mass density [kg/m3]
288.15 K | 787.2
298.15 K | 776.53
308.15 K | 765.7

CC#N [acetonitrile] + CCCC[N+]1(C)CCCC1.O=S(=O)([N-]S(=O)(=O)C(F)(F)F)C(F)(F)F
[2], x2 = 0
Conditions | mass density [kg/m3] | surface tension liquid-gas [mN/m]
288.15 K | 787.2 | 29.53
298.15 K | 776.5 | 28.34
308.15 K | 765.7 | 27.15

CO [methanol]
[1]
Conditions | surface tension liquid-gas [mN/m]
288.15 K | 22.88
298.15 K | 22
308.15 K | 21.01

[1], 101 kPa
Conditions | mass density [kg/m3]
288.15 K | 795.8
298.15 K | 786.45
308.15 K | 777

CO [methanol] + CCCC[N+]1(C)CCCC1.O=S(=O)([N-]S(=O)(=O)C(F)(F)F)C(F)(F)F
[2], x2 = 0
Conditions | mass density [kg/m3] | surface tension liquid-gas [mN/m]
288.15 K | 795.8 | 22.88
298.15 K | 786.4 | 22
308.15 K | 777 | 21.01
